Drawing on patent publication US12509447B2, “Small molecule compound” (Technoderma Medicines Pte Ltd, priority 2019, dated 2025), this text covers IC50 for 12 compounds.

Assay type in all cases: biochemical
The target of one experiment is JAK2 (Homo sapiens, UniProt O60674). In words: Inhibition of JAK kinase activity, EZ Reader microfluidic phosphorylation of peptide substrate: JAK2. Conditions: JAK2 kinase 1 nM; highest final concentration 10 μM, 1:3 serial dilution, 8 points, duplicates. From the text:
(§1) EZ Reader available from PerkinElmer can be used for detecting the phosphorylation of polypeptide substrates catalyzed by kinases. This device is based on microfluidic separation technology, and can directly detect fluorescence labeled substrates and products. The separation step is achieved in a microfluidic chip by controlling the pressure and electric field intensity. In a kinase experiment, the product conversion rate is generally controlled at 20-30%. This biological assay method is used for identifying the inhibitory effect of the compounds on JAK.
(§2) The compound powder was dissolved in DMSO, sealed and stored in a refrigerator at −20° C. The in-house compound Ref1 was used as a positive control for testing of JAK1, JAK2 and Tyk2, and Ref2 was used as a positive control for testing of JAK3.
(§3) • S2.1. 1M HEPES buffer: 0.5M HEPES free acid and 0.5M HEPES sodium salt are weighed, added into ultrapure water for dissolution, brought to a desired volume, filtered and stored in a refrigerator at 4° C. • S2.2. 40 mM ATP solution: dissolved in a 50 mM HEPES buffer solution, prepared into 40 mM, aliquoted, and cryopreserved in a refrigerator at −20° C. • S2.3. 0.5% Tween 20: 100% Tween 20 was diluted with ultrapure water, and stored in a refrigerator at 4° C. • S2.4. 35% bovine serum albumin: a 35% bovine serum albumin solution is prepared in ultrapure water, aliquoted, and stored in a refrigerator at −20° C. • S2.5. 1M dithiothreitol solution: dithiothreitol is formulated into a 1M solution with ultrapure water, aliquoted, and stored in a refrigerator at −20° C. • S2.6. 0.5 mM Jaktide Peptide substrate solution: it is dissolved in 50 mM HEPES to 0.5 mM, aliquoted, and stored in a refrigerator at −20° C. • S2.7. 0.5 mM IRStide Peptide substrate solution: it is dissolved in 50 mM HEPES to 0.5 mM, aliquoted, and stored in a refrigerator at −20° C. • S2.8. Assay Buffer: 20 mM HEPES buffer, pH 7.4, 10 mM magnesium chloride, 0.01% bovine serum albumin BSA, 0.0005% Tween-20, and a 1 mM dithiothreitol solution. • S2.9. Stop Buffer: 180 mM HEPES buffer, 20 mM ethylenediamine tetraacetic acid (EDTA), and 0.2% Coating Reagent 3. • S2.10. Separation Buffer: 100 mM HEPES buffer, 10 mM EDTA, 0.0005% Tween 20, 0.1% Coating Reagent 3, and 1% dimethyl sulfoxide. 3. Experimental Procedures • S3.1. Preparation of compound plate
(§4) The compound is dissolved in dimethyl sulfoxide to 10 mM, a certain volume is taken and diluted to 0.6 mM, 10 μl of the diluted 0.6 mM solution is taken and added into a 384 microplate or 1:3 serial dilution, with a total of 8 concentration points. • S3.2. Compound layout
(§5) • positive control (HPE1): Ref1, final concentration: 10 μM • positive control (HPE1): Ref2, final concentration: 10 μM • negative control (ZPE): DMSO, with a final concentration of 1.6% • Compound: the highest final concentration at 10 μM, 1:3 serial dilution, with 8 concentration points and in duplicates. 4. Experimental operation steps • S4.1. the experimental plate was added with 250 nl of the compound per well with ECHO, and centrifuged at 1,000 rpm for 1 minute; • S4.2. the precipitate was added with 5 μl of the experimental buffer, and shaken for several seconds to fully dissolve the compound; • S4.3. the solution was added with 5 μl of a 3× substrate solution, as well as 5 μl of a 3× kinase solution, and centrifuged at 800 rpm for 1 minute; • S4.4. The final concentrations of JAK1, JAK2, JAK3 and Tyk2 kinases in the reaction system are 20, 1, 1 and 1 nM, respectively. • S4.5. the reaction system is incubated at room temperature, wherein the incubation time of each kinase is different, and there are differences in incubation time of different batches of kinases. • S4.6. When the reaction reaches 20%-30%, the reaction system is added with 15 μl of the stop buffer to terminate the reaction, and centrifuged at 1,000 rpm for 2 minutes. • S4.7. The precipitate was placed onto a EZ Reader for plate reading. • S4.8. […]

In a further experiment the target is T1, JAK3 (Homo sapiens, UniProt P52333).
T1 sequence (P52333 1-1124): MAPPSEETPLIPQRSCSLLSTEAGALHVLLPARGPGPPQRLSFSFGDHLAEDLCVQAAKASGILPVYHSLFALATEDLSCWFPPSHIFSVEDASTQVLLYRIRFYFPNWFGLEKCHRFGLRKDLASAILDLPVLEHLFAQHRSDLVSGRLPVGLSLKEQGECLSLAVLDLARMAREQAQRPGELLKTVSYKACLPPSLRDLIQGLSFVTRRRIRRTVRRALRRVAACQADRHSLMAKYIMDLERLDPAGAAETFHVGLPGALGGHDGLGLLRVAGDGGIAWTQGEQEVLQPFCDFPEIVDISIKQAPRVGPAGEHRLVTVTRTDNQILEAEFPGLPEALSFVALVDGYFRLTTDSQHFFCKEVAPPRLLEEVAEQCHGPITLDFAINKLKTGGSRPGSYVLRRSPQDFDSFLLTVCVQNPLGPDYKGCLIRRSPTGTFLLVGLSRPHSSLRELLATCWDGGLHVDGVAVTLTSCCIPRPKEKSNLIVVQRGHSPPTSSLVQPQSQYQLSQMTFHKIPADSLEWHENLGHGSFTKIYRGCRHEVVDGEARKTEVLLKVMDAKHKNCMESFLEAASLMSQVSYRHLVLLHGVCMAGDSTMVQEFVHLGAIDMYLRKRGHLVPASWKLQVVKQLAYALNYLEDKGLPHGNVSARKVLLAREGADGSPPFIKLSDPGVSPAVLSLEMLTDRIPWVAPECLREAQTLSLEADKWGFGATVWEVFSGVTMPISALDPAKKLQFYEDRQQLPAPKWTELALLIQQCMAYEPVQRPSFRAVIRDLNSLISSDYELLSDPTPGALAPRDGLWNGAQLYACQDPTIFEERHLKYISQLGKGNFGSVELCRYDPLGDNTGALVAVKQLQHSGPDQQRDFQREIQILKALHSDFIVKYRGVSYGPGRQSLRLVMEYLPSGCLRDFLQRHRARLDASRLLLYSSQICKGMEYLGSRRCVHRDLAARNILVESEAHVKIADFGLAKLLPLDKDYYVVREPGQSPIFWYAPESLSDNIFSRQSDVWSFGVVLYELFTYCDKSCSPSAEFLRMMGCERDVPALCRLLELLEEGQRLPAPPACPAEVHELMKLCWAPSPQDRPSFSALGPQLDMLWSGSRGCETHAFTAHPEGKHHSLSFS
As to the kind of experiment: Inhibition of JAK kinase activity, EZ Reader microfluidic phosphorylation of peptide substrate: JAK3. Conditions: JAK3 kinase 1 nM; highest final concentration 10 μM, 1:3 serial dilution, 8 points, duplicates.
Text: as §1, §2, §3, §4, §5

Another experiment concerns the target JAK1 (Homo sapiens, UniProt P23458). In words: Inhibition of JAK kinase activity, EZ Reader microfluidic phosphorylation of peptide substrate: JAK1. The settings on record: JAK1 kinase 20 nM; highest final concentration 10 μM, 1:3 serial dilution, 8 points, duplicates.
Text: as §1, §2, §3, §4, §5

Another experiment concerns the target Tyk2 (Homo sapiens, UniProt P29597). As to the kind of experiment: Inhibition of JAK kinase activity, EZ Reader microfluidic phosphorylation of peptide substrate: Tyk2. Conditions: Tyk2 kinase 1 nM; highest final concentration 10 μM, 1:3 serial dilution, 8 points, duplicates.
Text: as §1, §2, §3, §4, §5

Tyk2, sequence (P29597 whole entry): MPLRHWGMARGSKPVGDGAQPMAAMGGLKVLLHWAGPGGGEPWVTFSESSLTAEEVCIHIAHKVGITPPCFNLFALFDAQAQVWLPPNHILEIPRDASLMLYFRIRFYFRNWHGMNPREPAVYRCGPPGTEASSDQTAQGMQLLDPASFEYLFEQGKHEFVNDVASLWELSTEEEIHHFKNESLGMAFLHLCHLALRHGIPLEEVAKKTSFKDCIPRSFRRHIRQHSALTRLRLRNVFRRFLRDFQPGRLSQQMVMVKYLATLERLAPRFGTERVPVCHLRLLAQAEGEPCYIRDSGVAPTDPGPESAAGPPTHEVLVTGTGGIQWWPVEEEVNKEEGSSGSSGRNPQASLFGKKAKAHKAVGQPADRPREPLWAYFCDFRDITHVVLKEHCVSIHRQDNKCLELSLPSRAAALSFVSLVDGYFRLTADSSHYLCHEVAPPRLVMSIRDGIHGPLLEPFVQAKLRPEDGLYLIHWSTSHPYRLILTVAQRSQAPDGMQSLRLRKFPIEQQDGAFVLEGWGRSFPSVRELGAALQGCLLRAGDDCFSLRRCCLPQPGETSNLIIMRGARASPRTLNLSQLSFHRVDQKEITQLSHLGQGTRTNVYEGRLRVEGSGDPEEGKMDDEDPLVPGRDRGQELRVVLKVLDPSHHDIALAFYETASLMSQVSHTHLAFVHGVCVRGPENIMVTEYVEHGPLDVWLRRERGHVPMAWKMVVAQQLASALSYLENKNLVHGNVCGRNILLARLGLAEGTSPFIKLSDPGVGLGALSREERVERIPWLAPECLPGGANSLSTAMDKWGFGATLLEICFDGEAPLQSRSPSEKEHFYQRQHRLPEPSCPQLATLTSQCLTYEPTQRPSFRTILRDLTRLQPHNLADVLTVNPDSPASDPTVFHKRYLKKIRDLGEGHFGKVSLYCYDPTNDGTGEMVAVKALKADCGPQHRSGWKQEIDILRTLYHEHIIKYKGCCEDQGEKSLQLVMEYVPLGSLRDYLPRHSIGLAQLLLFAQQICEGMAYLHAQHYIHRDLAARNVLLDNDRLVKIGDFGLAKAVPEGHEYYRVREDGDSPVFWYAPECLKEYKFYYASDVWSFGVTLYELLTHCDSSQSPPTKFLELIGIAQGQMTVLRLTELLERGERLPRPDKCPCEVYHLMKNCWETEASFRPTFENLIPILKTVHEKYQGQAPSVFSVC
JAK1, sequence (P23458 whole entry): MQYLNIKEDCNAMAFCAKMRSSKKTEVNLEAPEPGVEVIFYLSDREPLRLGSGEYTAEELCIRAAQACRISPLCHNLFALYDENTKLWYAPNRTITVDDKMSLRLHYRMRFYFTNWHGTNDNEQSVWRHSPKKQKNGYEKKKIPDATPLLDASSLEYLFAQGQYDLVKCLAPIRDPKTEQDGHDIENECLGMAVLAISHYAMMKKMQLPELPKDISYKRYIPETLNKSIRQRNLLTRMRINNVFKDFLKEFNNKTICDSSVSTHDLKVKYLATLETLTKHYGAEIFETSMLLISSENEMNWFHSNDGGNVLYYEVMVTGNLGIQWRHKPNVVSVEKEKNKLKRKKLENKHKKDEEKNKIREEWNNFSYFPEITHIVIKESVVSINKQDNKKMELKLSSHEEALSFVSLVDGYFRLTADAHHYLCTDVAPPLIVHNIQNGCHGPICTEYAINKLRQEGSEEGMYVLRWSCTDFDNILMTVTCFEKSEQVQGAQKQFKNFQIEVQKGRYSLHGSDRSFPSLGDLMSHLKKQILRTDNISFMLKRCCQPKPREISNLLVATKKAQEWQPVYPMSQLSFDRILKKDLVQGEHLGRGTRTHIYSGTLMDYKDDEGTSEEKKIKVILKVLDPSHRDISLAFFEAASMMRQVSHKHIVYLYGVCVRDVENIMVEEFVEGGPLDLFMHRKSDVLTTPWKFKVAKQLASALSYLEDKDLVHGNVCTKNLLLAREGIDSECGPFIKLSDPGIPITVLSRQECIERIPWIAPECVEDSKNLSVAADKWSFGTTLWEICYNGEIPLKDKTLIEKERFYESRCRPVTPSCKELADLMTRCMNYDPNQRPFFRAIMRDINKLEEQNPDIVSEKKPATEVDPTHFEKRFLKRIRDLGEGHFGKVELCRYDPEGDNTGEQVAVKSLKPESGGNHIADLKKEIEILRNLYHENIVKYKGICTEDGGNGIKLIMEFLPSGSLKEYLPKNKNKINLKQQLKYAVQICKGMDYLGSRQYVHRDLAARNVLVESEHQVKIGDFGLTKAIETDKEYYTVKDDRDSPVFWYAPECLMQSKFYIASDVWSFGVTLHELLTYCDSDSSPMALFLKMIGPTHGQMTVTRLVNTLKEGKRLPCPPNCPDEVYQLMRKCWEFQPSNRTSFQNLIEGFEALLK
JAK2, sequence (O60674 whole entry): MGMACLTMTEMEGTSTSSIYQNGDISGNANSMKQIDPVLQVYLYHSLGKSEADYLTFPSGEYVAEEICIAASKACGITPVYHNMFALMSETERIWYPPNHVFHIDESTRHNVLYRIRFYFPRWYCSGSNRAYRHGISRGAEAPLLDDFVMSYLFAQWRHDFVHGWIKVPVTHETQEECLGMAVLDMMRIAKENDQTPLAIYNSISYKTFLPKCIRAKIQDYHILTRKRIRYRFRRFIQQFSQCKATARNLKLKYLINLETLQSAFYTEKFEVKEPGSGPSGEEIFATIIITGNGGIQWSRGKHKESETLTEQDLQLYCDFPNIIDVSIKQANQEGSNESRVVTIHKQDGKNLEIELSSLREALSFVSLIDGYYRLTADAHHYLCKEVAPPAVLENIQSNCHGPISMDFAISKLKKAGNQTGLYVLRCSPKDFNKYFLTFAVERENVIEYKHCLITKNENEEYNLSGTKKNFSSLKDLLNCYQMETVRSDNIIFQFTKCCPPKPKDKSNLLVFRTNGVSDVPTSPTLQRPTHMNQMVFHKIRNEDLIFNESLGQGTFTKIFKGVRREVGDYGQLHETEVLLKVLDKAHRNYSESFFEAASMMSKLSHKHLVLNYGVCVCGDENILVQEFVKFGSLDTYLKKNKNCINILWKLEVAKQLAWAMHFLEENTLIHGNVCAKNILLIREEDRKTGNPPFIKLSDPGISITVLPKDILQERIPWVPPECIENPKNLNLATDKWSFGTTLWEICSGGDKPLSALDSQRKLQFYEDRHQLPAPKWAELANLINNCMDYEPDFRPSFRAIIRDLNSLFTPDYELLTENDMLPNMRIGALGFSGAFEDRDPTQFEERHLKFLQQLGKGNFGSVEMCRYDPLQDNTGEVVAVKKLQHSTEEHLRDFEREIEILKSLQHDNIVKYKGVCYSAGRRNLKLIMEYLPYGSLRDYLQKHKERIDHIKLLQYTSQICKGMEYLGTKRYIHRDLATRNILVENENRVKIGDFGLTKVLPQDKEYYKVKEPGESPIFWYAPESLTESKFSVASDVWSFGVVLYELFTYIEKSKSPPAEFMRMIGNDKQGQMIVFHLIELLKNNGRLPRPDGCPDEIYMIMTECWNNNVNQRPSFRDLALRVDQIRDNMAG

`Cn1cc(Nc2nccc(-c3ccn(C4(CC#N)CN(S(=O)(=O)C5CC5)C4)c3)n2)cn1` [TDM-180770, 2-(1-(cyclopropylsulfonyl)-3-(3-(2-((1-methyl-1H-pyrazol-4-yl)amino)pyrimidin-4-yl)-1H-pyrrol-1-yl)azetidinpyridin-3-yl)acetonitrile]: the IC50 – broadly, the concentration that inhibits the measured activity by half – is 0.1 to 1 µM against JAK2, 1 to 10 µM on JAK3, 0.1 to 1 µM at JAK1 and less than 0.1 µM on Tyk2.
Turning to `CCS(=O)(=O)N1CCC(n2cc(-c3ccnc(Nc4cnn(C)c4)n3)cn2)C1` (stereo not drawn) [TDM-180647, 4-(1-(1-(ethylsulfonyl)pyrrolidine-3-yl)-1H-pyrazol-4-yl)-N-(1-methyl-1H-pyrazol-4-yl)pyrimidin-2-amine], the IC50 against JAK2 is 1 to 10 µM; at JAK3, 1 to 10 µM; at JAK1, not below 10 µM; on Tyk2, not below 10 µM.
Turning to `Cn1cc(Nc2nccc(-c3cnn(C4CN(C(=O)CC(F)(F)F)C4)c3)n2)cn1` [TDM-180669, 3,3,3-trifluoro-1-(3-(4-(2-((1-methyl-1H-pyrazol-4-yl)amino)pyrimidin-4-yl)-1H-pyrazol-1-yl)azetidin-yl)propan-1-one], the 50% inhibitory concentration (IC50) against JAK2, on JAK3, against JAK1 and at Tyk2 was not below 10 µM each time.
For `Cn1cc(Nc2nccc(-c3ccn(C4(CC#N)CN(S(=O)(=O)CCCF)C4)c3)n2)cn1` [TDM-180854, 2-(1-((3-fluoropropyl)sulfonyl)-3-(3-(2-((1-methyl-1H-pyrazol-4-yl)amino)pyrimidin-4-yl)-1H-pyrrol-1-yl)azetidin-3-yl)acetonitrile], the IC50 is less than 0.1 µM at JAK2, 1 to 10 µM against JAK3, 0.1 to 1 µM against JAK1 and 0.1 to 1 µM against Tyk2.
With `Cn1cc(Nc2cc(-c3cnn(C4CN(C(=O)CC#N)C4)c3)ccn2)cn1` [TDM-180641, 3-(3-(4-(2-((1-methyl-1H-pyrazol-4-yl)amino)pyridin-4-yl)-1H-pyrazol-1-yl)azetidin-1-yl)-3-oxypropionitrile], the IC50 against JAK2, on JAK3, against JAK1 and on Tyk2 was not below 10 µM throughout.
`CC(=O)N1CCN(c2ccc(-c3ccnc(Nc4cnn(C)c4)n3)cc2)CC1` [TDM-180827, 1-(4-(4-(2-((1-methyl-1H-pyrazol-4-yl)amino)pyrimidin-4-yl)phenyl)piperazin-1-yl)ethan-1-one]: the half-maximal inhibitory concentration (IC50) was 0.1 to 1 µM against JAK2, not below 10 µM against JAK3, 1 to 10 µM on JAK1 and 1 to 10 µM against Tyk2.
On to `Cn1cc(Nc2nccc(-c3cnn(C4(CC#N)CN(S(=O)(=O)Cc5ccccc5)C4)c3)n2)cn1` [TDM-180795, 2-(1-(benzylsulfonyl)-3-(4-(2-((1-methyl-1H-pyrazol-4-yl)amino)pyrimidin-4-yl)-1H-pyrazol-1-yl)azetidinpyridin-3-yl)acetonitrile], for which the concentration for half-maximal inhibition (IC50) at JAK2 was 0.1 to 1 µM; on JAK3 it was not below 10 µM; on JAK1 it was 1 to 10 µM; against Tyk2 it was 0.1 to 1 µM.
As for `CCCC(=O)N1CC(n2cc(-c3ccnc(Nc4cnn(C)c4)c3)cn2)C1` [TDM-180640, 1-(3-(4-(2-((1-methyl-1H-pyrazol-4-yl)amino)pyridin-4-yl)-1H-pyrazol-1-yl)azetidin-1-yl)butan-1-one], the IC50 against JAK2, against JAK3, at JAK1 and at Tyk2 was not below 10 µM in each case.
Regarding `Cn1cc(Nc2nccc(-c3ccn(C4(CC#N)CN(C(=O)CC#N)C4)c3)n2)cn1` [TDM-180775, 3-(3-(cyanomethyl)-3-(3-(2-((1-methyl-1H-pyrazol-4-yl)amino)pyrimidin-4-yl)-1H-pyrrol-1-yl)azetidinpiperazin-1-yl)-3-oxypropionitrile], the half-maximal inhibitory concentration (IC50) is 0.1 to 1 µM against JAK2, not below 10 µM at JAK3, 0.1 to 1 µM against JAK1 and 0.1 to 1 µM on Tyk2.
In the case of `CCCS(=O)(=O)N1CC(CC#N)(n2cc(-c3ccnc(Nc4cnn(C)c4)n3)cn2)C1` [TDM-180794, 2-(3-(4-(2-((1-methyl-1H-pyrazol-4-yl)amino)pyrimidin-4-yl)-1H-pyrazol-1-yl)-1-(propylsulfonyl)azacyclobutanpyridin-3-yl)acetonitrile], the IC50 against JAK2 was in the range of 0.1 to 1 µM; against JAK3 it was 1 to 10 µM; at JAK1 it was 0.1 to 1 µM; at Tyk2, 0.1 to 1 µM.
`Cn1cc(Nc2nccc(-c3ccn(C4(CC#N)CN(C(=O)CC(F)(F)F)C4)c3)n2)cn1` [TDM-180778]: the concentration for half-maximal inhibition (IC50) is 0.1 to 1 µM on JAK2, 1 to 10 µM on JAK3, less than 0.1 µM against JAK1 and less than 0.1 µM against Tyk2.
Take `CCC(=O)N1CC(n2cc(-c3ccnc(Nc4cnn(C)c4)n3)cn2)C1` [TDM-180646, 1-(3-(4-(2-((1-methyl-1H-pyrazol-4-yl)amino)pyrimidin-4-yl)-1H-pyrazol-1-yl)azetidin-1-yl)propan-1-one]: the IC50 at JAK2, on JAK3, against JAK1 and against Tyk2 was not below 10 µM throughout.
